Among the data in PubChem BioAssay (NCI) are TGI and GI50 values, retold here.

What all share (test): growth of human tumour cells (NCI), 48 h
Assay [1] relates to RPMI-8226 leukemia.
Assay [2] has as its system MCF7 breast.
For assay [3], the system named is SF-295 CNS.
For assay [4], the system named is HOP-62 NSCLC.
Assay [5] has as its system RXF 393 renal.
The subject of assay [6] is LOX IMVI melanoma.
Assay [7] deals with UO-31 renal.
Assay [8] relates to OVCAR-4 ovarian.

“And” between values parts separate entries of the source, which are not always exact repeats. Equal values may be shown once.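 A five-concentration, 48-hour dose response in 96-well plates underlies each endpoint, interpolated linearly between surrounding concentrations. Abbreviation: GI50, concentration required for 50% inhibition of growth. TGI: total growth inhibition.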 *1 amine or outer side, *2 acyl side, *3 side chain or, on linkers, in order; H or OH if unused. Where a SMILES comes first, the peptide text is derived from it. Bridges are numbered along the chain shown (N, C = ends). [ ]: non-standard residue; d: D form. ξ: configuration not given here. X4 = CCC(C)C(N[*:1])C(O)CC(=O)O[C@H](C(=O)C(C)C(=O)[*:2])C(C)C; NMeY = CN[C@@H](Cc1ccc(O)cc1)C(=O)O; ξNMeL = CNC(CC(C)C)C(=O)O; ξT = CC(O)C(N)C(=O)O

In the case of `Cc1[nH]c(-c2ccccc2)c(-c2ccc(Cl)cc2)c1C(=O)ONC(=O)c1ccccc1`, the TGI in assay [1] was more than 48.4 µM; in assay [2] it was 28 µM; in assay [3] it was 4.74 µM; in assay [4], 5.45 µM; in assay [5] it was 6.69 µM; in assay [6] it was 2.87 µM. The molecule also displayed a TGI in assay [7] of 2.89 µM.

Regarding `CCOC(=O)C(Cc1ccccc1)(Cc1ccc(O)cn1)NC(=O)c1ccccc1` (configuration not stated), the TGI was more than 100 µM in assay [1]; 51.5 µM in assay [2]; more than 100 µM in assay [3]; 97.7 µM in assay [8]; more than 100 µM in assay [4]; more than 100 µM in assay [5]. Further, the TGI in assay [6] is 45.2 µM; in assay [7], more than 100 µM.

Take `O=C(c1ccco1)N(C(=S)OCc1ccccn1)c1ccccc1`: the TGI in assay [1], in assay [2], in assay [4], in assay [5], in assay [6] and in assay [7] was more than 100 µM in each case.

With `NC(CCCCNC(=O)OCc1ccccc1)C(=O)NC(CCCCNC(=O)OCc1ccccc1)C(=O)ON1C(=O)CCC1=O` (configuration not stated), the TGI in assay [1], in assay [2], in assay [4], in assay [5] and in assay [7] was more than 100 µM in each case.

On to `COC(=O)[C@@H]1N2C(=S)N(c3ccccc3)C(=O)[C@H]2SC1(C)C`, for which the TGI in assay [1], in assay [2], in assay [3], in assay [8], in assay [4] and in assay [5] was more than 100 µM in each case. The molecule further yielded a TGI in assay [7] of more than 100 µM.

As to `OC1OC(c2ccco2)C(F)(F)C(F)(F)C1(F)F` (configuration not stated), the TGI in assay [1], in assay [2], in assay [3], in assay [8], in assay [4] and in assay [5] was more than 100 µM in each case. Besides, the TGI in assay [6] and in assay [7] was more than 100 µM throughout.

For `CCOC(=O)C1=C(C)NC(=S)NC1c1cccc(O)c1` (configuration not stated), the TGI is more than 97 µM in assay [1]; more than 100 µM in assay [2]; 93.6 µM in assay [3]; more than 100 µM in assay [8]; more than 100 µM in assay [4]; 65.7 µM in assay [5]. Also, the TGI in assay [6] and in assay [7] was more than 100 µM throughout.

On to `O=C(NNC(=S)Nc1ccccc1)c1csc(NC(=S)NC2CCCCC2)n1`, for which the TGI was more than 100 µM in assay [1]; more than 100 µM in assay [2]; more than 100 µM in assay [3]; more than 100 µM in assay [4]; 69.5 µM in assay [6]; 79.6 µM in assay [7].

For `CSc1ncc2c(n1)-c1ccccc1OC2N1CCCC1` (configuration not stated), the TGI in assay [1], in assay [2], in assay [3], in assay [8], in assay [5] and in assay [6] was more than 100 µM each time. Besides, the TGI in assay [7] is more than 100 µM.

For `O=C1NC(N/N=C\c2ccccc2)=N/C1=C/c1ccc(Cl)cc1`, the TGI was 59.7 µM in assay [1]; 57.4 µM in assay [2]; 78.8 µM in assay [3]; 31.4 µM in assay [8]; 42 µM in assay [4]; 47.3 µM in assay [5]. In addition, the TGI in assay [6] stood at 67.9 µM; in assay [7], 36.2 µM.

On to `O=C(O)c1ccc(Nc2nc3cc(C(F)(F)F)ccc3nc2C(=O)O)cc1`, for which the TGI in assay [2], in assay [3], in assay [8], in assay [4], in assay [5] and in assay [6] was more than 100 µM in each case. This molecule also came in with a TGI in assay [7] of more than 100 µM.

With `CC(C)n1c(=O)n(-c2ccccc2)n(C(C)(C)C)c1=O`, the TGI in assay [2], in assay [3], in assay [8], in assay [4], in assay [5] and in assay [6] was more than 100 µM in each case. Also, in assay [7], the TGI was more than 100 µM.

For `COC(=O)c1cncc2c1CC1C3(C(=O)OC)C=NC(C4C(CO)=CCC43)C21C` (configuration not stated), the TGI in assay [2], in assay [3], in assay [8], in assay [4], in assay [5] and in assay [6] was more than 100 µM in each case. In assay [7], this molecule returned a TGI of more than 100 µM.

As to `CN1CC(c2ccccc2)N(CCCCN2CC(c3ccccc3)N(C)CC2c2ccccc2)CC1c1ccccc1` (configuration not stated), the TGI in assay [2] was more than 100 µM; in assay [3], more than 100 µM; in assay [8] it was more than 100 µM; in assay [4], more than 100 µM; in assay [5] it was 71.1 µM; in assay [6] it was 39.1 µM. In assay [7], this molecule came in with a TGI of more than 100 µM.

In the case of `CSc1nncc(-c2cc3c(c(SC)n2)CCC3)n1`, the TGI in assay [1], in assay [3], in assay [8], in assay [4], in assay [5] and in assay [7] was more than 100 µM in each case.

For `Cc1ccc(O)c(C2=NNC(c3cccc(Br)c3)C2)c1` (configuration not stated), the TGI in assay [1], in assay [2], in assay [3], in assay [4], in assay [5] and in assay [6] was more than 100 µM throughout. Besides, the TGI in assay [7] was more than 100 µM.

For `CCC(C)C1NC(=O)C(NC(=O)C(CC(C)C)N(C)C(=O)[C@@H]2CCCN2)C(C)OC(=O)[C@H](Cc2ccc(OC)cc2)N(C)C(=O)[C@@H]2CCCN2C(=O)[C@H](CC(C)C)NC(=O)C(C)C(=O)[C@H](C(C)C)OC(=O)CC1O` (some centres not stated) (H-P[ξNMeL][ξT][X4]LP[NMeY](Me); ester 3-C), the TGI in assay [3] was 0.0149 µM; in assay [8], 0.00369 µM and 0.0185 µM; in assay [4], 0.00782 µM; in assay [6], 0.00206 µM and 0.0101 µM; in assay [7], 0.118 µM and 0.444 µM. In assay [7], the GI50 was 0.0253 µM.
